Data: patent US9198423B2, “Active compound combinations” (BAYER INTELLECTUAL PROPERTY GMBH, priority 2011, dated 2015)

Experiments:
[1] = system: Alternaria solani; assay: Alternaria test (tomatoes)/preventive; type: in vivo, Alternaria solani on tomatoes; conditions: preventive spray, evaluated 3 days after inoculation
Experimental: Alternaria Test (Tomatoes)/Preventive [table] To produce a suitable preparation of active compound, 1 part by weight of active compound is mixed with the stated amounts of solvent and emulsifier, and the concentrate is diluted with water to the desired concentration. To test for preventive activity, young plants are sprayed with the preparation of active compound at the stated rate of application. After the spray coating has dried on, the plants are inoculated with an aqueous spore suspension of Alternaria solani. The plants are then placed in an incubation cabinet at approximately 20° C. and a relative atmospheric humidity of 100%. The test is evaluated 3 days after the inoculation. 0% means an efficacy which corresponds to that of the untreated control while an efficacy of 100% means that no disease is observed.

[2] = system: Venturia inaequalis; assay: Venturia test (apples)/preventive; type: in vivo, Venturia inaequalis on apples; conditions: preventive spray, evaluated 10 days after inoculation
Experimental: Venturia Test (Apples)/Preventive [table] To produce a suitable preparation of active compound, 1 part by weight of active compound is mixed with the stated amounts of solvent and emulsifier, and the concentrate is diluted with water to the desired concentration. To test for preventive activity, young plants are sprayed with the preparation of active compound at the stated rate of application. After the spray coating has dried on, the plants are inoculated with an aqueous conidia suspension of the causal agent of apple scab (Venturia inaequalis) and then remain for 1 day in an incubation cabinet at approximately 20° C. and a relative atmospheric humidity of 100%. The plants are then placed in a greenhouse at approximately 21° C. and a relative atmospheric humidity of approximately 90%. The test is evaluated 10 days after the inoculation. 0% means an efficacy which corresponds to that of the untreated control, while an efficacy of 100% means that no disease is observed.

Row | SMILES | Efficacy in % found ([1]; application rate 10 ppm a.i.) [%] | Efficacy in % found ([2]; application rate 10 ppm a.i.) [%] | Efficacy in % found ([1]; application rate 40 ppm a.i.) [%] | Efficacy in % found ([2]; application rate 40 ppm a.i.) [%]
1 | OC(Cc1ccccc1Cl)(Cn1nc[nH]c1=S)C1(Cl)CC1 (stereo not shown) [(A) Prothioconazole, Prothioconazole] | 50 | 43 |  | 
2 | CC(C)NC(=O)N1CC(=O)N(c2cc(Cl)cc(Cl)c2)C1=O [(B) Iprodione, Iprodione] |  |  | 70 | 3
